pIC50, pKi: −log10 of the molar value. Active and inactive are the calls of the source. The rule behind the calls is not given here.
Target: T1, Proteinase-activated receptor 1 (Homo sapiens) (UniProt P25116)
T1 sequence (whole entry): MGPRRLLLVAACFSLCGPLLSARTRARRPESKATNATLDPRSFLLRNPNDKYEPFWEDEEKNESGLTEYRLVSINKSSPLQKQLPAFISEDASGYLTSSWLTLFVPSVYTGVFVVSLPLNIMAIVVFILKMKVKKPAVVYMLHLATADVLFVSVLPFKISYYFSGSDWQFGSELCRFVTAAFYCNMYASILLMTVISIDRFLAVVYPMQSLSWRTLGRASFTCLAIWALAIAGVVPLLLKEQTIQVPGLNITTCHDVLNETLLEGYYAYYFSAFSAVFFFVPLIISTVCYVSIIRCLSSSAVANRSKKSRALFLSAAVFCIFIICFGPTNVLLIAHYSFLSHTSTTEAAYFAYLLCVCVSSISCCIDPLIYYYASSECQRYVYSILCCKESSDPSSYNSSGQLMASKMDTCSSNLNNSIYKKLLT
Experiment: (§1) Displacement of [3H]haTRAP from human PAR1 receptor in platelet membrane
Format: cell membranes
Settings: not given

Activity	Compound
inactive	C[C@H]1OC(=O)[C@@H]2C=C3CCCC[C@H]3[C@H](/C=C/c3ccccc3)[C@H]12
inactive	Cc1cccc(/C=C/[C@@H]2[C@@H]3[C@@H](C)OC(=O)[C@@H]3C=C3CCCC[C@H]32)c1

Target: T2, Proteinase-activated receptor 1 (Homo sapiens, UniProt P25116)
T2 sequence (P25116 whole entry): T1 sequence (whole entry)
Experiment: as §1
Format: cell membranes
Settings: not given

pIC50	Compound
7.92	C[C@H]1OC(=O)[C@@H]2C[C@@H]3CCCC[C@H]3[C@H](/C=C/c3ccc(-c4ccco4)cn3)[C@H]12 (racemic)
6.46	Cc1cccc(/C=C/[C@@H]2[C@@H]3[C@@H](C)OC(=O)[C@@H]3C=C3CCCC[C@H]32)n1
7.80	C[C@H]1OC(=O)[C@@H]2C[C@@H]3CCCC[C@H]3[C@H](/C=C/c3ccc(-c4cccs4)cn3)[C@H]12 (racemic)
7.96	C[C@H]1OC(=O)[C@@H]2C[C@@H]3CCCC[C@H]3[C@H](/C=C/c3ccc(-c4ccsc4)cn3)[C@H]12 (racemic)
7.66	C[C@H]1OC(=O)[C@@H]2C[C@@H]3CCCC[C@H]3[C@H](/C=C/c3ccc(-c4cccnc4)cn3)[C@H]12
6.89	Cc1nc(/C=C/[C@@H]2[C@@H]3[C@@H](C)OC(=O)[C@@H]3C=C3CCCC[C@H]32)ccc1-c1ccccc1
7.44	C[C@H]1OC(=O)[C@@H]2C[C@@H]3CCCC[C@H]3[C@H](/C=C/c3ccc(-c4ccc(Cl)s4)cn3)[C@H]12 (racemic)
6.68	C[C@H]1OC(=O)[C@@H]2C[C@@H]3CCCC[C@H]3[C@H](/C=C/c3ccc(-c4ccc[n+]([O-])c4)cn3)[C@H]12
5.67	C[C@H]1OC(=O)[C@@H]2C[C@@H]3CCCC[C@H]3[C@H](/C=C/c3ccc(-c4ccncc4)cn3)[C@H]12
7.54	C[C@H]1OC(=O)[C@@H]2C[C@@H]3CCCC[C@H]3[C@H](/C=C/c3ccc(N4CCCC4)cn3)[C@H]12
6.94	C[C@H]1OC(=O)[C@@H]2C[C@@H]3CCCC[C@H]3[C@H](/C=C/c3ccc(C4CCCC4)cn3)[C@H]12
5.48	C[C@H]1OC(=O)[C@@H]2C[C@@H]3CCCC[C@H]3[C@H](/C=C/c3ccc(N4CCN(c5ccccc5)CC4)cn3)[C@H]12
6.84	C[C@H]1OC(=O)[C@@H]2C[C@@H]3CCCC[C@H]3[C@H](/C=C/c3ccc(-c4cncn4C)cn3)[C@H]12
7.06	C[C@H]1OC(=O)[C@@H]2C[C@@H]3CCCC[C@H]3[C@H](/C=C/c3ccc(-c4cnccn4)cn3)[C@H]12
6.58	CCc1ccc(/C=C/[C@H]2[C@@H]3CCCC[C@H]3C[C@H]3C(=O)O[C@H](C)[C@@H]23)nc1
7.33	C[C@H]1OC(=O)[C@@H]2C[C@@H]3CCCC[C@H]3[C@H](/C=C/c3ccc(-c4nccs4)cn3)[C@H]12
6.55	CCc1nc(/C=C/[C@@H]2[C@@H]3[C@@H](C)OC(=O)[C@@H]3C=C3CCCC[C@H]32)ccc1-c1ccccc1
7.66	C[C@H]1OC(=O)[C@@H]2C[C@@H]3CCCC[C@H]3[C@H](/C=C/c3ccc(-c4ccccn4)cn3)[C@H]12
6.36	C[C@H]1OC(=O)[C@@H]2C[C@@H]3CCCC[C@H]3[C@H](/C=C/c3ccc(N4CCOCC4)cn3)[C@H]12
5.88	C[C@H]1OC(=O)[C@@H]2C[C@@H]3CCCC[C@H]3[C@H](/C=C/c3ccc(-c4ncc[nH]4)cn3)[C@H]12
7.37	C[C@H]1OC(=O)[C@@H]2C=C3CCCC[C@H]3[C@H](/C=C/c3ccc(-c4ccccc4)cn3)[C@H]12
5.44	C[C@H]1OC(=O)[C@@H]2C=C3CCCC[C@H]3[C@H](/C=C/c3ccccn3)[C@H]12

Target: T1, Proteinase-activated receptor 1 (Homo sapiens)
Experiment: Displacement of [3H]haTRAP from human PAR1 receptor in platelet membrane at 1 uM
Format: cell membranes
Settings: not given

inhibition	Compound
45%	C[C@H]1OC(=O)[C@@H]2C=C3CCCC[C@H]3[C@H](/C=C/c3cnc4ccccc4c3)[C@H]12
5%	C[C@H]1OC(=O)[C@@H]2C=C3CCCC[C@H]3[C@H](/C=C/c3cncnc3)[C@H]12
38%	C[C@H]1OC(=O)[C@@H]2C=C3CCCC[C@H]3[C@H](/C=C/c3nc4ccccc4o3)[C@H]12
14%	C[C@H]1OC(=O)[C@@H]2C=C3CCCC[C@H]3[C@H](/C=C/c3nccs3)[C@H]12
11%	C[C@H]1OC(=O)[C@@H]2C=C3CCCC[C@H]3[C@H](/C=C/c3cccnc3)[C@H]12
1%	C[C@H]1OC(=O)[C@@H]2C=C3CCCC[C@H]3[C@H](/C=C/c3cnccn3)[C@H]12
12%	C[C@H]1OC(=O)[C@@H]2C[C@@H]3CCCC[C@H]3[C@H](/C=C/c3ccc(N4CCN(C)CC4)cn3)[C@H]12
2%	C[C@H]1OC(=O)[C@@H]2C=C3CCCC[C@H]3[C@H](/C=C/c3ccccc3)[C@H]12
16%	C[C@H]1OC(=O)[C@@H]2C=C3CCCC[C@H]3[C@H](/C=C/c3ccccn3)[C@H]12

System: Cynomolgus monkey
Experiment: Ex vivo inhibition of platelet aggregation in cynomolgus monkey at 3 mg/kg after 6 hrs
Format: functional
Settings: Macaca fascicularis

Compound	Activity	inhibition in vivo at 3 mg/kg
C[C@H]1OC(=O)[C@@H]2C[C@@H]3CCCC[C@H]3[C@H](/C=C/c3ccc(-c4cccc(C(F)(F)F)c4)cn3)[C@H]12	Active	
C[C@H]1OC(=O)[C@@H]2C[C@@H]3CCCC[C@H]3[C@H](/C=C/c3ccc(-c4cccnc4)cn3)[C@H]12		70%

System: not listed separately
Experiment: Cmax in rat
Format: ADME, organism-based
Settings: in vivo

Cmax	Compound
223 ng/mL	C[C@H]1OC(=O)[C@@H]2C[C@@H]3CCCC[C@H]3[C@H](/C=C/c3ccc(-c4ccccc4)cn3)[C@H]12
1130 ng/mL	C[C@H]1OC(=O)[C@@H]2C[C@@H]3CCCC[C@H]3[C@H](/C=C/c3ccc(-c4cccc(C(F)(F)F)c4)cn3)[C@H]12
109 ng/mL	C[C@H]1OC(=O)[C@@H]2C[C@@H]3CCCC[C@H]3[C@H](/C=C/c3ccc(-c4cccs4)cn3)[C@H]12 (racemic)
461 ng/mL	C[C@H]1OC(=O)[C@@H]2C[C@@H]3CCCC[C@H]3[C@H](/C=C/c3ccc(-c4ccsc4)cn3)[C@H]12 (racemic)
1820 ng/mL	C[C@H]1OC(=O)[C@@H]2C[C@@H]3CCCC[C@H]3[C@H](/C=C/c3ccc(-c4cccnc4)cn3)[C@H]12
343 ng/mL	C[C@H]1OC(=O)[C@@H]2C[C@@H]3CCCC[C@H]3[C@H](/C=C/c3ccc(-c4ccc(Cl)s4)cn3)[C@H]12 (racemic)
251 ng/mL	C[C@H]1OC(=O)[C@@H]2C[C@@H]3CCCC[C@H]3[C@H](/C=C/c3ccc(-c4ccccn4)cn3)[C@H]12

System: Cynomolgus monkey
Experiment: Ex vivo inhibition of platelet aggregation in cynomolgus monkey at 3 mg/kg up to 4 hrs
Format: functional, organism-based
Parameters: dose 3 mg/kg
Settings: Macaca fascicularis

Compound	Activity
C[C@H]1OC(=O)[C@@H]2C[C@@H]3CCCC[C@H]3[C@H](/C=C/c3ccc(-c4cccnc4)cn3)[C@H]12	Active

System: not listed separately
Experiment: AUC (0 to 4 hrs) in rat
Format: ADME, organism-based
Parameters: time < 4 hr; concentration or dose not given beside the values
Settings: plasma

AUC(0-t) at 4 h	Compound
451 ng·h/mL	C[C@H]1OC(=O)[C@@H]2C[C@@H]3CCCC[C@H]3[C@H](/C=C/c3ccc(-c4ccccc4)cn3)[C@H]12
3010 ng·h/mL	C[C@H]1OC(=O)[C@@H]2C[C@@H]3CCCC[C@H]3[C@H](/C=C/c3ccc(-c4cccc(C(F)(F)F)c4)cn3)[C@H]12
160 ng·h/mL	C[C@H]1OC(=O)[C@@H]2C[C@@H]3CCCC[C@H]3[C@H](/C=C/c3ccc(-c4cccs4)cn3)[C@H]12 (racemic)
434 ng·h/mL	C[C@H]1OC(=O)[C@@H]2C[C@@H]3CCCC[C@H]3[C@H](/C=C/c3ccc(-c4ccsc4)cn3)[C@H]12 (racemic)
4230 ng·h/mL	C[C@H]1OC(=O)[C@@H]2C[C@@H]3CCCC[C@H]3[C@H](/C=C/c3ccc(-c4cccnc4)cn3)[C@H]12
1060 ng·h/mL	C[C@H]1OC(=O)[C@@H]2C[C@@H]3CCCC[C@H]3[C@H](/C=C/c3ccc(-c4ccc(Cl)s4)cn3)[C@H]12 (racemic)
509 ng·h/mL	C[C@H]1OC(=O)[C@@H]2C[C@@H]3CCCC[C@H]3[C@H](/C=C/c3ccc(-c4ccccn4)cn3)[C@H]12

Target: Cannabinoid receptor 2 (Homo sapiens, UniProt P34972)
Experiment: Binding affinity to cannabinoid CB2 receptor
Settings: not given

Sequence of Cannabinoid receptor 2 (P34972 whole entry): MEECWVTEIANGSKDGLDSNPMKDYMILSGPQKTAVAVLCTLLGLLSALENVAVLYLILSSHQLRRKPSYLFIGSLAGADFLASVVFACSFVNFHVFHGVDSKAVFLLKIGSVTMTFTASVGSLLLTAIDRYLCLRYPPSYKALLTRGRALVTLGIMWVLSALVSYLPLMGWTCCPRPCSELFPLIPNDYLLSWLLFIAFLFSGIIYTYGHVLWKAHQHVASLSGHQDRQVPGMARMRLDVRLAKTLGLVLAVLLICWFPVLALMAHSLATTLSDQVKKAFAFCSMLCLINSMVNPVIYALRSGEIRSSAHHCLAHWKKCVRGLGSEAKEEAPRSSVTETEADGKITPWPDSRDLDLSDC

pKi	Compound
4.89	C[C@H]1OC(=O)[C@@H]2C[C@@H]3CCCC[C@H]3[C@H](/C=C/c3ccc(-c4cccnc4)cn3)[C@H]12
6.31	C[C@H]1OC(=O)[C@@H]2C[C@@H]3CCCC[C@H]3[C@H](/C=C/c3ccc(N4CCCC4)cn3)[C@H]12

Reference: ChEMBL document CHEMBL1149566, “Himbacine derived thrombin receptor (PAR-1) antagonists: SAR of the pyridine ring” (Bioorg Med Chem Lett, 2007)
